{"source": "patent US20210205329A1", "about": "(The University of North Carolina at Chapel Hill, priority 2018, published 2021)", "key": {"TLR3 signal": {"system": "TLR3 signal", "assay": "Poly(I:C)-activated TLR3 signaling in RAW264.7 cells", "assay_type": "cell-based, mouse", "conditions": "1 μM; Poly-IC 25 μg/ml; 24 hrs"}, "TLR4/MyD88 binding": {"molecular_target": "T1, TLR4/MyD88 binding (Rattus norvegicus, UniProt Q9QX05)", "T1 construct": "from tissue; host or cells: ventral tegmental area (VTA) of alcohol-preferring (P) rats", "T1 sequence (Q9QX05 26-835)": "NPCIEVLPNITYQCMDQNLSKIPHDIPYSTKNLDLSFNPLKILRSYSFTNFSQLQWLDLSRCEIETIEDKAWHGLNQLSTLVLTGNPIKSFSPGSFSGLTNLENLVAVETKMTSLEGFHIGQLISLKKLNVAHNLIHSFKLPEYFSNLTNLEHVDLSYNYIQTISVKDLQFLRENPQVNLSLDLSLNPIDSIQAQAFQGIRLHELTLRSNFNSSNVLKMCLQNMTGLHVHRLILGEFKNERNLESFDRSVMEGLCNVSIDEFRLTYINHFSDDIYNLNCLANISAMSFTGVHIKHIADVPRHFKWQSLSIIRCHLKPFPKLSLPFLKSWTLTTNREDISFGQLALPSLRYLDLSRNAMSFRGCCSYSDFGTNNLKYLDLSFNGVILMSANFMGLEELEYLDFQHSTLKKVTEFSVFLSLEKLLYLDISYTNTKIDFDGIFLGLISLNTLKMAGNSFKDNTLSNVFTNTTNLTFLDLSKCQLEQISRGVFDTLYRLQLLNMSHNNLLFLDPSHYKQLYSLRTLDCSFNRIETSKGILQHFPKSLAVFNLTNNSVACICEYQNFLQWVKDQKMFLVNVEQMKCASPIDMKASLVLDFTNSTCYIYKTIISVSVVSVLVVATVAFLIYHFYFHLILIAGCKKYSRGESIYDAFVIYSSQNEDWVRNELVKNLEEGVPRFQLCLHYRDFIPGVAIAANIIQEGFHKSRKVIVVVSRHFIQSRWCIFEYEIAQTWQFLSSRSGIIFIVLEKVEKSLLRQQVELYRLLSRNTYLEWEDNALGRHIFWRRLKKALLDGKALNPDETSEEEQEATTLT", "assay": "TLR4/MyD88 co-immunoprecipitation in P rat VTA", "assay_type": "in vivo", "conditions": "15 mg/kg IP, P rats", "method": "Co-Immunoprecipitation Assay RAW264.7 cells [treated with LPS (1 μg/ml), 3α,5α-THP (1 μM) or pregnenolone (1 μM)] were exposed to chemical protein crosslinking (Poulopoulos et al, 2009) at 24 hrs post-treatment. Briefly, the cells were incubated (20 min on ice) with 1 mM of the cleavable, membrane-permeable crosslinker DSP (Thermo Fisher Scientific, Cat. #PG82081). Rat VTA homogenates were incubated (20 min on ice) with 200 μM of DSP. The crosslinker was quenched in 1 M Tris buffer (pH 7.5) (to a final concentration of 10-20 mM), and the material was centrifuged at 21,000×g for 15 min. Proteins from the cells were extracted with Pierce IP Lysis Buffer (Thermo Fisher Scientific, Cat. #87787) supplemented with protease and phosphatase inhibitor cocktails (Sigma). Proteins from the VTA were extracted with CelLytic MT (dialyzable mild detergent, bicine and 150 mM NaCl; Sigma Aldrich, St. Louis, Mo., USA, Cat. #C3228) supplemented with protease and phosphatase inhibitor cocktails (Sigma) according to the manufacturers instructions. […]"}}, "note": "Several values for one entry are separate records, joined by “and”; a condition that tells them apart may be missing. Equal entries are not always repeated.", "data": [{"smiles": "CC(=O)[C@H]1CC[C@H]2[C@@H]3CC[C@H]4C[C@H](O)CC[C@]4(C)[C@H]3CC[C@]12C", "note": "[3α,5α-THP, (3α,5α)3-hydroxypregnan-20-one]", "values": [{"measurement": "effect of Poly(I:C) on IP-10 (CXCL10) expression", "setting": "TLR3 signal", "result": "not altered"}, {"measurement": "inhibition of TLR4/MyD88 binding in VTA", "setting": "TLR4/MyD88 binding", "result": "43.5±5.4% and ~40%"}]}]}
